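Following 48 hours of exposure in 96-well plates, responses at five concentrations were used to interpolate endpoints linearly. GI50 marks 50% less growth.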 The source made the active and inactive calls. No stated cut-off is given here; in the data, active = GI50 up to about 1.1 µM and inactive = higher.
Tests used:
Experiment in all cases: NCI anticancer screen, dose series, 48 h
EKVX = tested on: EKVX
RXF 393 = tested on: RXF 393
Hs-578T = tested on: Hs-578T
SR = tested on: SR
MDA-MB-435 = tested on: MDA-MB-435
BT-549 = tested on: BT-549
HCT-15 = tested on: HCT-15
HOP-92 = tested on: HOP-92
NCI-H522 = tested on: NCI-H522
NCI-H23 = tested on: NCI-H23
SF-268 = tested on: SF-268
UO-31 = tested on: UO-31
RPMI-8226 = tested on: RPMI-8226
MDA-MB-231 = tested on: MDA-MB-231
KM12 = tested on: KM12
LOX IMVI = tested on: LOX IMVI
A549 = tested on: A549
NCI/ADR-RES = tested on: NCI/ADR-RES
OVCAR-8 = tested on: OVCAR-8
SK-OV-3 = tested on: SK-OV-3

SMILES	GI50 (EKVX)	GI50 (RXF 393)	GI50 (Hs-578T)	GI50 (SR)	GI50 (MDA-MB-435)	GI50 (BT-549)	GI50 (HCT-15) [µM]	GI50 (HOP-92)	GI50 (NCI-H522)	GI50 (NCI-H23)	GI50 (SF-268)	GI50 (UO-31)	GI50 (RPMI-8226)	GI50 (MDA-MB-231)	GI50 (KM12)	GI50 (LOX IMVI)	GI50 (A549)	GI50 (NCI/ADR-RES)	GI50 (OVCAR-8)	GI50 (SK-OV-3)
O=C1CC(c2cccc(Cl)c2)Nc2ccc(N3CCCC3)cc21 (stereo not given)	0.0658 µM (active)	0.0224 µM (active)	0.01 µM (active)	0.0304 µM (active)	0.00484 µM (active)	1.29 µM (inactive)	0.203	0.373 µM (active)	0.0191 µM (active)	0.278 µM (active)	0.115 µM (active)	0.0603 µM (active)	0.0802 µM (active)	0.366 µM (active)	0.361 µM (active)	0.0518 µM (active)	0.0494 µM (active)	0.0274 µM (active)	0.0522 µM (active)	0.193 µM (active)
OCCn1cnc2c(SCc3ccccc3)ncnc21	> 100 µM (inactive)	> 100 µM (inactive)	69.7 µM (inactive)	19.5 µM (inactive)	> 100 µM (inactive)	95.7 µM (inactive)	11.9	> 100 µM (inactive)	97.9 µM (inactive)	> 100 µM (inactive)	71.8 µM (inactive)	> 100 µM (inactive)	97.5 µM (inactive)	> 100 µM (inactive)	> 100 µM (inactive)	61.1 µM (inactive)	> 100 µM (inactive)	> 100 µM (inactive)	> 100 µM (inactive)	> 100 µM (inactive)
NC(Cc1ccccc1)c1nn[nH]n1 (stereo not given)	> 100 µM (inactive)	> 100 µM (inactive)	> 100 µM (inactive)	> 100 µM (inactive)	> 100 µM (inactive)	> 100 µM (inactive)	> 100	> 100 µM (inactive)	> 100 µM (inactive)	> 100 µM (inactive)	> 100 µM (inactive)	> 100 µM (inactive)	> 100 µM (inactive)	> 100 µM (inactive)	> 100 µM (inactive)	> 100 µM (inactive)	> 100 µM (inactive)	> 100 µM (inactive)	> 100 µM (inactive)	> 100 µM (inactive)
O=C(O)c1cc(C(=O)O)cc(N2C(=O)c3ccccc3C2=O)c1	> 100 µM (inactive)	> 100 µM (inactive)	> 100 µM (inactive)	> 100 µM (inactive)	> 100 µM (inactive)	> 100 µM (inactive)	> 100	> 100 µM (inactive)	> 100 µM (inactive)	> 100 µM (inactive)	> 100 µM (inactive)	> 100 µM (inactive)	> 100 µM (inactive)	> 100 µM (inactive)	> 100 µM (inactive)	> 100 µM (inactive)	> 100 µM (inactive)	> 100 µM (inactive)	> 100 µM (inactive)	> 100 µM (inactive)
NC(=O)c1cc2ccc(O)cc2o/c1=N/c1ccccc1	31.1 µM (inactive)	26.2 µM (inactive)	64.3 µM (inactive)	16.1 µM (inactive)	23.3 µM (inactive)	24.4 µM (inactive)	26.4	34 µM (inactive)	17.8 µM (inactive)	18.1 µM (inactive)	51.2 µM (inactive)	3.6 µM (inactive)	20.7 µM (inactive)	67.8 µM (inactive)	27.2 µM (inactive)	24 µM (inactive)	25.6 µM (inactive)	23.8 µM (inactive)	30.3 µM (inactive)	34.5 µM (inactive)
N#Cc1nc(COCCOCc2ccccc2)oc1N	> 100 µM (inactive)	> 100 µM (inactive)	> 100 µM (inactive)	> 100 µM (inactive)	> 100 µM (inactive)	88.9 µM (inactive)	> 100	> 100 µM (inactive)	23 µM (inactive)	> 100 µM (inactive)	> 100 µM (inactive)	> 100 µM (inactive)	> 100 µM (inactive)	> 100 µM (inactive)	> 100 µM (inactive)	> 100 µM (inactive)	> 100 µM (inactive)	> 100 µM (inactive)	> 100 µM (inactive)	> 100 µM (inactive)
c1ccc2c(c1)CN1CCCC1CN2 (stereo not given)	> 100 µM (inactive)	> 100 µM (inactive)	> 100 µM (inactive)	> 100 µM (inactive)	> 100 µM (inactive)	> 100 µM (inactive)	> 100	> 100 µM (inactive)	> 100 µM (inactive)	> 100 µM (inactive)	> 100 µM (inactive)	> 100 µM (inactive)	> 100 µM (inactive)	> 100 µM (inactive)	> 100 µM (inactive)	> 100 µM (inactive)	> 100 µM (inactive)	> 100 µM (inactive)	> 100 µM (inactive)	> 100 µM (inactive)

From ChEMBL document CHEMBL1201862, “PubChem BioAssay data set” (2004)
